Measured values: the supplement of paper PMC11208160

experiment: recombinant UMI read abundance after kanamycin selection (control-corrected) (log10(CPM+1)); higher = more efficient recombination; extreme values may be limits of the assay; sequences stand for … in AGTGCAGAGAAAATCGGCCAGTTTTCTCTGCCTGCAGTCCGCATGCCGTGGGACCCCTTGGGTTCTAACCTGTTGCCTAGATTTATGCAGCGGACTGCCTTTCTCCCAAAGTGATAAACCGG…AGGTTGGTTTCACT; site = the 11-nt donor
In short: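 Each donor and donor-binding-loop pair was tracked by a 12-nt UMI on a plasmid carrying a promoterless kanamycin gene. With a second plasmid supplying a fixed target and T7-inducible IS621 bridge recombinase, the pool was plated in Escherichia coli on IPTG (0.07 mM) plus kanamycin or unselected. Sequencing of recombinant UMIs across the donor–target junction gave counts expressed as log10(CPM+1) after replicate averaging and control-derived scaling.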
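Also: IS621 bridge recombinase in Escherichia coli cells against a fixed T5 target plasmid.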

Which “recombinant UMI read abundance (log10)” value does the source give for “CTATTAACATGGACCGGTTTTCCCGGTAATCCGTATTTGGA (site CTAATAACTTC)” here?
The value was 0.484.

Which “recombinant UMI read abundance (log10)” value does the source give for “CTATTAACATGGACCGGTTTTCCCGGTAATCCGTATTTGGA (site CTACTAACTTC)” here?
The value was 0.342.

With “CTATTAACATGGACCGGTTTTCCCGGTAATCCGTATTTGGA (site CTAGTAACTTC)” as the sequence, how does the “recombinant UMI read abundance (log10)” value read?
The value was 0.397.

Which “recombinant UMI read abundance (log10)” value does the source give for “CTATTAACATGGACCGGTTTTCCCGGTAATCCGTATTTGGA (site CTATTAACTTC)” here?
Its value is 1.64.

With “CTATTGGCATGGACCGGTTTTCCCGGTAATCCGTATTTGTA (site CTATTGGCTTA)” as the sequence, how does the “recombinant UMI read abundance (log10)” value read?
Its value is 1.84.

With “CTATTGTCATGGACCGGTTTTCCCGGTAATCCGTATTTGAC (site CTAGTATCTGT)” as the sequence, how does the “recombinant UMI read abundance (log10)” value read?
The value was 0.

Which “recombinant UMI read abundance (log10)” value does the source give for “CTATTGTCATGGACCGGTTTTCCCGGTAATCCGTATTTGAC (site CTATTGTCTGT)” here?
The value was 0.

With “CTCAAAGCATGGACCGGTTTTCCCGGTAATCCGTATTTGCG (site CTCAAAGCTCG)” as the sequence, how does the “recombinant UMI read abundance (log10)” value read?
The value was 0.762.

With “CTCAGCCCATGGACCGGTTTTCCCGGTAATCCGTATTTGCC (site CTCAGCCCTGG)” as the sequence, how does the “recombinant UMI read abundance (log10)” value read?
The value was 0.

With “CTCAGCTCATGGACCGGTTTTCCCGGTAATCCGTATTTGAA (site CTCAGCTCTTT)” as the sequence, how does the “recombinant UMI read abundance (log10)” value read?
Its value is 2.08.

For “CTCATTCCATGGACCGGTTTTCCCGGTAATCCGTATTTGCT (site CTCATTCCTAG)”, which “recombinant UMI read abundance (log10)” value is on record?
The value was 0.523.

Which “recombinant UMI read abundance (log10)” value does the source give for “CTCCAAACATGGACCGGTTTTCCCGGTAATCCGTATTTGGC (site CTCCAAACTGC)” here?
Its value is 0.

For “CTCCAACCATGGACCGGTTTTCCCGGTAATCCGTATTTGCC (site CTCCAACCTGG)”, which “recombinant UMI read abundance (log10)” value is on record?
Its value is 0.

With “CTCCATGCATGGACCGGTTTTCCCGGTAATCCGTATTTGTC (site CTCCATGCTGA)” as the sequence, how does the “recombinant UMI read abundance (log10)” value read?
Its value is 2.3.

With “CTCCCGACATGGACCGGTTTTCCCGGTAATCCGTATTTGAG (site CTCCCAACTCT)” as the sequence, how does the “recombinant UMI read abundance (log10)” value read?
The value was 0.849.

With “CTCCCGACATGGACCGGTTTTCCCGGTAATCCGTATTTGAG (site CTCCCCACTCT)” as the sequence, how does the “recombinant UMI read abundance (log10)” value read?
Its value is 0.00318.

For “CTCCCGACATGGACCGGTTTTCCCGGTAATCCGTATTTGAG (site CTCCCGACTCT)”, which “recombinant UMI read abundance (log10)” value is on record?
The value was 0.968.

Which “recombinant UMI read abundance (log10)” value does the source give for “CTCCCGACATGGACCGGTTTTCCCGGTAATCCGTATTTGAG (site CTCCCTACTCT)” here?
Its value is 0.0167.

With “CTCCCTACATGGACCGGTTTTCCCGGTAATCCGTATTTGAT (site CTCCCTACTAT)” as the sequence, how does the “recombinant UMI read abundance (log10)” value read?
Its value is 1.01.

With “CTCCCTACATGGACCGGTTTTCCCGGTAATCCGTATTTGAT (site CTCCCTACTCT)” as the sequence, how does the “recombinant UMI read abundance (log10)” value read?
The value was 0.00726.

With “CTCCCTACATGGACCGGTTTTCCCGGTAATCCGTATTTGAT (site CTCCCTACTGT)” as the sequence, how does the “recombinant UMI read abundance (log10)” value read?
Its value is 0.137.

With “CTCCCTACATGGACCGGTTTTCCCGGTAATCCGTATTTGAT (site CTCCCTACTTT)” as the sequence, how does the “recombinant UMI read abundance (log10)” value read?
The value was 0.0164.

For “CTCCCTACATGGACCGGTTTTCCCGGTAATCCGTATTTGGG (site CTCCCTACTCA)”, which “recombinant UMI read abundance (log10)” value is on record?
The value was 0.037.

With “CTCCCTACATGGACCGGTTTTCCCGGTAATCCGTATTTGGG (site CTCCCTACTCC)” as the sequence, how does the “recombinant UMI read abundance (log10)” value read?
Its value is 0.0177.

For “CTCCCTACATGGACCGGTTTTCCCGGTAATCCGTATTTGGG (site CTCCCTACTCG)”, which “recombinant UMI read abundance (log10)” value is on record?
The value was 0.00544.

With “CTCCCTACATGGACCGGTTTTCCCGGTAATCCGTATTTGGG (site CTCCCTACTCT)” as the sequence, how does the “recombinant UMI read abundance (log10)” value read?
The value was 0.0127.

For “CTCCCTGCATGGACCGGTTTTCCCGGTAATCCGTATTTGGC (site CTCCCTGCTGC)”, which “recombinant UMI read abundance (log10)” value is on record?
Its value is 0.

For “CTCCGACCATGGACCGGTTTTCCCGGTAATCCGTATTTGAC (site CTCCGACCTGT)”, which “recombinant UMI read abundance (log10)” value is on record?
Its value is 0.

With “CTCCTACCATGGACCGGTTTTCCCGGTAATCCGTATTTGCT (site CTACTACCTAG)” as the sequence, how does the “recombinant UMI read abundance (log10)” value read?
Its value is 0.

Which “recombinant UMI read abundance (log10)” value does the source give for “CTCCTACCATGGACCGGTTTTCCCGGTAATCCGTATTTGCT (site CTCCTACCTAG)” here?
The value was 0.

For “CTCCTACCATGGACCGGTTTTCCCGGTAATCCGTATTTGCT (site CTGCTACCTAG)”, which “recombinant UMI read abundance (log10)” value is on record?
The value was 0.00362.

For “CTCCTACCATGGACCGGTTTTCCCGGTAATCCGTATTTGCT (site CTTCTACCTAG)”, which “recombinant UMI read abundance (log10)” value is on record?
Its value is 0.

With “CTCGAAACATGGACCGGTTTTCCCGGTAATCCGTATTTGTG (site CTCGAAACTCA)” as the sequence, how does the “recombinant UMI read abundance (log10)” value read?
The value was 1.06.

Which “recombinant UMI read abundance (log10)” value does the source give for “CTCGAATCATGGACCGGTTTTCCCGGTAATCCGTATTTGCA (site CTCGAATCTTG)” here?
The value was 2.42.

With “CTCGACACATGGACCGGTTTTCCCGGTAATCCGTATTTGGC (site CTCGACACTGC)” as the sequence, how does the “recombinant UMI read abundance (log10)” value read?
The value was 1.04.

With “CTCGCAACATGGACCGGTTTTCCCGGTAATCCGTATTTGTT (site CTCGCAACTAA)” as the sequence, how does the “recombinant UMI read abundance (log10)” value read?
The value was 1.96.

For “CTCGGAGCATGGACCGGTTTTCCCGGTAATCCGTATTTGAC (site CTCGGAGCTGT)”, which “recombinant UMI read abundance (log10)” value is on record?
The value was 2.63.
